Test results published in patent US8507509B2, “Saturated and insaturated bi- or tricyclic aryloxyacetamine derivatives and their use as fungicides” (Syngenta Crop Protection LLC, priority 2007, dated 2013).

Columns and labels:
Septoria tritici = Septoria tritici (leaf blotch), liquid culture growth inhibition in nutrient broth; format: cell-based; settings: Zymoseptoria tritici; 200 ppm; PDB broth, 24 C; inhibition of growth determined photometrically after 72 hrs; read-out: control of fungal infection, Septoria tritici
Phytophthora infestans = assay: whole plant or invertebrate; format: in vivo; settings: in Solanum lycopersicum, foliar, 96 h, read-out: control of fungal infection, Phytophthora infestans
Plasmopara viticola = Plasmopara viticola (downy mildew of grapevine), grapevine leaf disk assay, preventive; format: in vivo; settings: foliar, 168 h, 200 ppm, grapevine leaf disks, assessed seven days after inoculation, read-out: control of fungal infection, Plasmopara viticola
Pythium ultimum = Pythium ultimum (Damping off), liquid culture growth inhibition in potato dextrose broth; format: cell-based; settings: Globisporangium ultimum; 20 ppm; potato dextrose broth, 24° C.; inhibition of growth determined photometrically after 48 hours; read-out: control of fungal infection, Pythium ultimum
[1] = system: Erysiphe graminis f.sp. tritici; assay: Erysiphe graminis f.sp. tritici (wheat powdery mildew), wheat leaf segment assay, preventive; format: in vivo; settings: Blumeria graminis, foliar, 96 h; 200 ppm; wheat leaf segments; assessed four days after inoculation; read-out: control of fungal infection, Etysiphe graminis f.sp. tritici
Septoria nodorum = Septoria nodorum (wheat glume blotch), wheat leaf segment assay, preventive; format: in vivo; settings: Parastagonospora nodorum, foliar, 96 h; 200 ppm; wheat leaf segments; assessed four days after inoculation; read-out: control of fungal infection, Septoria nodorum

C=CCON=CC(C)(C)NC(=O)C(CC)Oc1ccc2ncc(I)cc2c1 (centres unmarked) [Compound No. 4, N-(2-Allyloxyimino-1,1-dimethyl-ethyl)-2-(3-iodo-quinolin-6-yloxy)-butyramide]
≥ 60%: inhibition of growth at 200 ppm (Septoria tritici) | pest or weed control at 200 ppm (Phytophthora infestans) | pest or weed control at 200 ppm (Plasmopara viticola) | inhibition of growth at 20 ppm (Pythium ultimum) | pest or weed control at 200 ppm [1]

CSC(Oc1ccc2ncc(Br)cc2c1)C(=O)NC(C)(C)C=NOc1ccccc1 (centres unmarked) [Compound No. 8, 2-(3-Bromo-quinolin-6-yloxy)-N-(1,1-dimethyl-2-phenoxyimino-ethyl)-2-methylsulfanyl-acetamide]
≥ 60%: inhibition of growth at 200 ppm (Septoria tritici) | pest or weed control at 200 ppm (Phytophthora infestans) | pest or weed control at 200 ppm (Plasmopara viticola) | inhibition of growth at 20 ppm (Pythium ultimum)

C#CCON=CC(C)(C)NC(=O)C(Oc1ccc2ncc(Br)cc2c1)SC (centres unmarked) [Compound No. 17, 2-(3-Bromo-quinolin-6-yloxy)-N-(1,1-dimethyl-2-prop-2-ynyloxyimino-ethyl)-2-methylsulfanyl-acetamide]
≥ 60%: pest or weed control at 200 ppm (Septoria nodorum) | inhibition of growth at 200 ppm (Septoria tritici) | pest or weed control at 200 ppm (Phytophthora infestans) | pest or weed control at 200 ppm (Plasmopara viticola) | inhibition of growth at 20 ppm (Pythium ultimum) | pest or weed control at 200 ppm [1]

CSC(Oc1ccc2ncc(Br)cc2c1)C(=O)NC(C)(C)C=NO (centres unmarked) [Compound No. 19, 2-(3-Bromo-quinolin-6-yloxy)-N-(2-hydroxyimino-1,1-dimethyl-ethyl)-2-methylsulfanyl-acetamide]
≥ 60%: inhibition of growth at 200 ppm (Septoria tritici) | pest or weed control at 200 ppm (Phytophthora infestans) | pest or weed control at 200 ppm (Plasmopara viticola) | inhibition of growth at 20 ppm (Pythium ultimum) | pest or weed control at 200 ppm [1]

CON=CC(C)(C)NC(=O)C(Oc1cc(Br)c2ncc(Br)cc2c1)SC (centres unmarked) [Compound No. 34, 2-(3,8-Dibromo-quinolin-6-yloxy)-N-(2-methoxyimino-1,1-dimethyl-ethyl)-2-methylsulfanyl-acetamide]
≥ 60%: pest or weed control at 200 ppm (Septoria nodorum) | inhibition of growth at 200 ppm (Septoria tritici)

C#Cc1cnc2ccc(OC(SC)C(=O)NC(C)(C)C=NOC)cc2c1 (centres unmarked) [Compound No. 38, 2-(3-Ethynyl-quinolin-6-yloxy)-N-(2-methoxyimino-1,1-dimethyl-ethyl)-2-methylsulfanyl-acetamide]
≥ 60%: pest or weed control at 200 ppm (Septoria nodorum) | inhibition of growth at 200 ppm (Septoria tritici) | pest or weed control at 200 ppm (Phytophthora infestans) | pest or weed control at 200 ppm (Plasmopara viticola) | pest or weed control at 200 ppm [1]

CSC(Oc1cc(C)c2ncc(I)cc2c1)C(=O)NC(C)(C)CC=NO (centres unmarked) [Compound No. 41, N-(3-Hydroxyimino-1,1-dimethyl-propyl)-2-(3-iodo-8-methyl-quinolin-6-yloxy)-2-methylsulfanylacetamide]
≥ 60%: inhibition of growth at 200 ppm (Septoria tritici) | pest or weed control at 200 ppm (Phytophthora infestans) | pest or weed control at 200 ppm (Plasmopara viticola) | inhibition of growth at 20 ppm (Pythium ultimum) | pest or weed control at 200 ppm [1]

CCON=CC(C)(C)NC(=O)C(Oc1cc(C)c2ncc(I)cc2c1)SC (centres unmarked) [Compound No. 42, N-(2-Ethoxyimino-1,1-dimethyl-ethyl)-2-(3-iodo-8-methyl-quinolin-6-yloxy)-2-methylsulfanyl-acetamide]
≥ 60%: pest or weed control at 200 ppm (Septoria nodorum) | pest or weed control at 200 ppm (Phytophthora infestans) | pest or weed control at 200 ppm (Plasmopara viticola)

CON=CC(C)(C)NC(=O)C(Oc1cc(C)c2ncc(I)cc2c1)SC (centres unmarked) [Compound No. 44, 2-(3-Iodo-8-methyl-quinolin-6-yloxy)-N-(2-methoxyimino-1,1-dimethyl-ethyl)-2-methylsulfanyl-acetamide]
≥ 60%: inhibition of growth at 200 ppm (Septoria tritici) | pest or weed control at 200 ppm (Plasmopara viticola) | inhibition of growth at 20 ppm (Pythium ultimum) | pest or weed control at 200 ppm [1]

CON=CCC(C)(C)NC(=O)C(Oc1ccc2ncc(I)cc2c1)SC (centres unmarked) [Compound No. 46, 2-(3-Iodo-quinolin-6-yloxy)-N-(3-methoxyimino-1,1-dimethyl-propyl)-2-methylsulfanyl-acetamide]
≥ 60%: pest or weed control at 200 ppm (Septoria nodorum) | inhibition of growth at 200 ppm (Septoria tritici) | pest or weed control at 200 ppm (Phytophthora infestans) | pest or weed control at 200 ppm (Plasmopara viticola) | pest or weed control at 200 ppm [1]

CCON=CC(C)(C)NC(=O)C(Oc1ccc2ncc(I)cc2c1)SC (centres unmarked) [Compound No. 51, N-(2-Ethoxyimino-1,1-dimethyl-ethyl)-2-(3-iodo-quinolin-6-yloxy)-2-methylsulfanyl-acetamide]
≥ 60%: inhibition of growth at 200 ppm (Septoria tritici) | pest or weed control at 200 ppm (Plasmopara viticola) | inhibition of growth at 20 ppm (Pythium ultimum) | pest or weed control at 200 ppm [1]

COCC(C)(C=NOC)NC(=O)C(Oc1cc(C)c2ncc(Br)cc2c1)SC (centres unmarked) [Compound No. 63, 2-(3-Bromo-8-methyl-quinolin-6-yloxy)-N-(2-methoxyimino-1-methoxymethyl-1-methyl-ethyl)-2-methylsulfanyl-acetamide]
≥ 60%: pest or weed control at 200 ppm (Septoria nodorum) | inhibition of growth at 200 ppm (Septoria tritici) | pest or weed control at 200 ppm (Phytophthora infestans) | pest or weed control at 200 ppm (Plasmopara viticola) | pest or weed control at 200 ppm [1]

CON=CC(C)(C)NC(=O)C(OC)Oc1ccc2ncc(Br)cc2c1 (centres unmarked) [Compound No. 70, 2-(3-Bromo-quinolin-6-yloxy)-2-methoxy-N-(2-methoxyimino-1,1-dimethyl-ethyl)-acetamide]
≥ 60%: inhibition of growth at 200 ppm (Septoria tritici) | pest or weed control at 200 ppm (Phytophthora infestans) | pest or weed control at 200 ppm (Plasmopara viticola) | inhibition of growth at 20 ppm (Pythium ultimum) | pest or weed control at 200 ppm [1]

COCC(=O)ON=CCC(C)(C)NC(=O)C(Oc1cc(C)c2ncc(I)cc2c1)SC (centres unmarked) [Compound No. 103, 2-(3-Iodo-8-methyl-quinolin-6-yloxy)-N-(3-methoxyacetoxyimino-1,1-dimethyl-propyl)-2-methylsulfanyl-acetamide]
≥ 60%: pest or weed control at 200 ppm (Septoria nodorum) | inhibition of growth at 200 ppm (Septoria tritici) | pest or weed control at 200 ppm (Plasmopara viticola) | pest or weed control at 200 ppm [1]

CON=C(Cc1ccsc1)C(C)(C)NC(=O)C(Oc1ccc2ncc(Br)cc2c1)SC (centres unmarked) [Compound No. 124, 2-(3-Bromo-quinolin-6-yloxy)-N-{2-[(E or Z)-methoxyimino]-1,1-dimethyl-3-thiophen-3-yl-propyl}-2-methylsulfanyl-acetamide]
≥ 60%: pest or weed control at 200 ppm (Septoria nodorum) | inhibition of growth at 200 ppm (Septoria tritici)

CON=C(c1ccccc1)C(C)(C)NC(=O)C(Oc1ccc2ncc(Br)cc2c1)SC (centres unmarked) [Compound No. 130, 2-(3-Bromo-quinolin-6-yloxy)-N-{2-[(E or Z)-methoxyimino]-1,1-dimethyl-2-phenyl-ethyl}-2-methylsulfanyl-acetamide]
≥ 60%: pest or weed control at 200 ppm (Septoria nodorum) | inhibition of growth at 200 ppm (Septoria tritici) | pest or weed control at 200 ppm (Phytophthora infestans) | pest or weed control at 200 ppm (Plasmopara viticola) | inhibition of growth at 20 ppm (Pythium ultimum) | pest or weed control at 200 ppm [1]

C#Cc1cnc2ccc(OC(CC)C(=O)NC(C)(C)C=NOC)cc2c1 (centres unmarked) [Compound No. 131, 2-(3-Ethynyl-quinolin-6-yloxy)-N-(2-methoxyimino-1,1-dimethyl-ethyl)-butyramide]
≥ 60%: pest or weed control at 200 ppm (Septoria nodorum) | inhibition of growth at 200 ppm (Septoria tritici) | pest or weed control at 200 ppm (Phytophthora infestans) | pest or weed control at 200 ppm (Plasmopara viticola) | inhibition of growth at 20 ppm (Pythium ultimum) | pest or weed control at 200 ppm [1]

C#Cc1cnc2c(C)cc(OC(CC)C(=O)NC(C)(C)C=NOC)cc2c1 (centres unmarked) [Compound No. 132, 2-(3-Ethynyl-8-methyl-quinolin-6-yloxy)-N-(2-methoxyimino-1,1-dimethyl-ethyl)-butyramide]
≥ 60%: pest or weed control at 200 ppm (Septoria nodorum) | inhibition of growth at 200 ppm (Septoria tritici) | pest or weed control at 200 ppm (Phytophthora infestans) | pest or weed control at 200 ppm (Plasmopara viticola) | inhibition of growth at 20 ppm (Pythium ultimum) | pest or weed control at 200 ppm [1]

CSC(Oc1ccc2ncc(Br)cc2c1)C(=O)NC(C)(C)C=NOCC#N (centres unmarked) [Compound No. 140, 2-(3-Bromo-quinolin-6-yloxy)-N-(2-cyanomethoxyimino-1,1-dimethyl-ethyl)-2-methylsulfanyl-acetamide]
≥ 60%: inhibition of growth at 200 ppm (Septoria tritici) | pest or weed control at 200 ppm (Phytophthora infestans) | pest or weed control at 200 ppm (Plasmopara viticola) | inhibition of growth at 20 ppm (Pythium ultimum) | pest or weed control at 200 ppm [1]

CSC(Oc1ccc2ncc(Br)cc2c1)C(=O)NC(C)(C)C=NOCC1CCCO1 (centres unmarked) [Compound No. 143, 2-(3-Bromo-quinolin-6-yloxy)-N-[1,1-dimethyl-2-(tetrahydro-furan-2-ylmethoxyimino)-ethyl]-2-methylsulfanyl-acetamide]
≥ 60%: inhibition of growth at 200 ppm (Septoria tritici) | pest or weed control at 200 ppm (Phytophthora infestans) | pest or weed control at 200 ppm (Plasmopara viticola) | inhibition of growth at 20 ppm (Pythium ultimum) | pest or weed control at 200 ppm [1]

CCC(Oc1ccc2ncc(Br)cc2c1)C(=O)NC(C)(C)C=NOCCF (centres unmarked) [Compound No. 151, 2-(3-Bromo-quinolin-6-yloxy)-N-[2-(2-fluoro-ethoxyimino)-1,1-dimethyl-ethyl]-butyramide]
≥ 60%: inhibition of growth at 200 ppm (Septoria tritici) | pest or weed control at 200 ppm (Phytophthora infestans) | pest or weed control at 200 ppm (Plasmopara viticola) | inhibition of growth at 20 ppm (Pythium ultimum) | pest or weed control at 200 ppm [1]

CCC(Oc1ccc2ncc(I)cc2c1)C(=O)NC(C)(C)C=NO (centres unmarked) [Compound No. 152, N-(2-Hydroxyimino-1,1-dimethyl-ethyl)-2-(3-iodo-quinolin-6-yloxy)-butyramide]
≥ 60%: inhibition of growth at 200 ppm (Septoria tritici) | pest or weed control at 200 ppm (Phytophthora infestans) | pest or weed control at 200 ppm (Plasmopara viticola) | inhibition of growth at 20 ppm (Pythium ultimum) | pest or weed control at 200 ppm [1]

CCC(Oc1cc2cc(Br)cnc2cc1F)C(=O)NC(C)(C)C=NOC (centres unmarked) [Compound No. 154, 2-(3-Bromo-7-fluoro-quinolin-6-yloxy)-N-(2-methoxyimino-1,1-dimethyl-ethyl)-butyramide]
≥ 60%: pest or weed control at 200 ppm (Septoria nodorum) | inhibition of growth at 200 ppm (Septoria tritici) | pest or weed control at 200 ppm (Phytophthora infestans) | pest or weed control at 200 ppm (Plasmopara viticola) | pest or weed control at 200 ppm [1]
